Assay results from US20030170176A1, “Individualization of therapy with antipsychotics” (McGill University, priority 2001, published 2003).

Test system: AAMU-Ab
Assay: Competitive antigen ELISA, cross-reactivity of AAMU-Ab
Type: binding, rabbit
Conditions: 0 = absence of inhibition or inhibition no higher than 40% at highest concentration tested (5 × 10^−3 M)
Procedure: Competitive Antigen ELISA
Buffers and water without additives are filtered through millipore filters and kept for 1 week. BSA, antibodies, Tween™ 20 and horse radish peroxidase conjugates are added to these buffers and water just prior to use. Urine samples are usually collected 4 hours after drinking a cup of coffee (instant or brewed with approximately 100 mg of caffeine per cup) and stored at −80° C. The urine samples are diluted 10 times with sodium phosphate buffer (620 mosm, pH 7.50) and are subsequently diluted with water to give concentrations of AAMU and 1× no higher than 3×10^−6 M in the ELISA. All the pipettings are done with an eight-channel pipette, except those of the antibody and sample solutions. Starting with the last well, 100 μL of a carbonate buffer (100 mM, pH 9.6) containing 2.5 μg mL^−1 antibodies are added to each well. After 90 min. at room temperature, the wells are washed three times with […] of TPB: isotonic sodium phosphate buffer (310 mosm, pH 7.50) containing 0.05% Tween™ 20.
After the initial wash, unoccupied sites are blocked by incubation for 90 min. at room temperature with 100 μL TBP containing 3% BSA. The wells are washed four times with 100 μL TPB. […] The microplate is gently shaken with an orbital shaker at room temperature for 3-4 hours. […]

SMILES: O=c1[nH]c(=O)c2[nH]cnc2[nH]1 [Xanthine]
- % Cross-Reaction AAMU-Ab: 0a %
